From PubChem BioAssay AID2060904 (Molecular Pharmacology Branch, DTP, NCI, 2025)
Blank lines part the entries; values can stand above or below the molecule they belong to.

Test system: 349418-098-R-PDC complex spheroid viability
Assay: Anticancer human tumor 349418-098-R-PDC patient-derived lung adenocarcinoma cell line growth inhibition [RAS]
Conditions: for IC50: curve of first compound; for viability, T/C: stronger effect = lower value
Outline: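 Tumour cells grown as complex spheroids with HUVEC endothelial cells and mesenchymal stem cells, treated with RAS pathway inhibitor combinations. Each agent spans half-log steps from near clinical Cmax, or 10 microM where Cmax is unknown.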

[1] = second compound 0.000949 µM, first compound 0.00316 µM
[2] = second compound 0.000949 µM, first compound 0.01 µM
[3] = second compound 0.000949 µM, first compound 0.0316 µM
[4] = second compound 0.000949 µM, first compound 0.1 µM
[5] = second compound 0.000949 µM, first compound 0.316 µM
[6] = second compound 0.000949 µM, first compound 1 µM
[7] = second compound 0.003 µM, first compound 0.00316 µM
[8] = second compound 0.003 µM, first compound 0.01 µM
[9] = second compound 0.003 µM, first compound 0.0316 µM
[10] = second compound 0.003 µM, first compound 0.1 µM
[11] = second compound 0.003 µM, first compound 0.316 µM
[12] = second compound 0.003 µM, first compound 1 µM
[13] = second compound 0.00949 µM, first compound 0.00316 µM
[14] = second compound 0.00949 µM, first compound 0.01 µM
[15] = second compound 0.00949 µM, first compound 0.0316 µM
[16] = second compound 0.00949 µM, first compound 0.1 µM
[17] = second compound 0.00949 µM, first compound 0.316 µM
[18] = second compound 0.00949 µM, first compound 1 µM
[19] = second compound 0.03 µM, first compound 0.00316 µM
[20] = second compound 0.03 µM, first compound 0.01 µM
[21] = second compound 0.03 µM, first compound 0.0316 µM
[22] = second compound 0.03 µM, first compound 0.1 µM
[23] = second compound 0.03 µM, first compound 0.316 µM
[24] = second compound 0.03 µM, first compound 1 µM
[25] = second compound 0.0949 µM, first compound 0.00316 µM
[26] = second compound 0.0949 µM, first compound 0.01 µM
[27] = second compound 0.0949 µM, first compound 0.0316 µM
[28] = second compound 0.0949 µM, first compound 0.1 µM
[29] = second compound 0.0949 µM, first compound 0.316 µM
[30] = second compound 0.0949 µM, first compound 1 µM
[31] = second compound 0.3 µM, first compound 0.00316 µM
[32] = second compound 0.3 µM, first compound 0.01 µM
[33] = second compound 0.3 µM, first compound 0.0316 µM
[34] = second compound 0.3 µM, first compound 0.1 µM
[35] = second compound 0.3 µM, first compound 0.316 µM
[36] = second compound 0.3 µM, first compound 1 µM
[37] = second compound 0.000949 µM, first compound 3.16 µM
[38] = second compound 0.000949 µM, first compound 10 µM
[39] = second compound 0.003 µM, first compound 3.16 µM
[40] = second compound 0.003 µM, first compound 10 µM
[41] = second compound 0.00949 µM, first compound 3.16 µM
[42] = second compound 0.00949 µM, first compound 10 µM
[43] = second compound 0.03 µM, first compound 3.16 µM
[44] = second compound 0.03 µM, first compound 10 µM
[45] = second compound 0.0949 µM, first compound 3.16 µM
[46] = second compound 0.0949 µM, first compound 10 µM
[47] = second compound 0.3 µM, first compound 3.16 µM
[48] = second compound 0.3 µM, first compound 10 µM
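Further: spheroids exposed to compound for seven days before viability readout.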

- IC50 (second compound 0.000949 µM): > 1 µM
- IC50 (second compound 0.003 µM): > 1 µM
- IC50 (second compound 0.00949 µM): > 1 µM
- IC50 (second compound 0.03 µM): > 1 µM
- IC50 (second compound 0.0949 µM): > 1 µM
- IC50 (second compound 0.3 µM): > 1 µM
SMILES: C=CC(=O)Nc1cc(Nc2nccc(-c3cn(C)c4ccccc34)n2)c(OC)cc1N(C)CCN(C)C + CCn1c(-c2cc(N3CCN(C)CC3)cnc2C(C)OC)c2c3cc(ccc31)-c1csc(n1)CC(NC(=O)C1CC1C)C(=O)N1CCCC(N1)C(=O)OCC(C)(C)C2
- viability, T/C [1]: 101%
- viability, T/C [2]: 94.8%
- viability, T/C [3]: 112%
- viability, T/C [4]: 109%
- viability, T/C [5]: 96.8%
- viability, T/C [6]: 76%
- viability, T/C [7]: 112%
- viability, T/C [8]: 95.8%
- viability, T/C [9]: 94.4%
- viability, T/C [10]: 98.7%
- viability, T/C [11]: 95%
- viability, T/C [12]: 70.3%
- viability, T/C [13]: 100%
- viability, T/C [14]: 88.5%
- viability, T/C [15]: 94.8%
- viability, T/C [16]: 75.8%
- viability, T/C [17]: 98.6%
- viability, T/C [18]: 75.7%
- viability, T/C [19]: 100%
- viability, T/C [20]: 107%
- viability, T/C [21]: 107%
- viability, T/C [22]: 102%
- viability, T/C [23]: 92.1%
- viability, T/C [24]: 65.3%
- viability, T/C [25]: 105%
- viability, T/C [26]: 101%
- viability, T/C [27]: 97.8%
- viability, T/C [28]: 105%
- viability, T/C [29]: 86.7%
- viability, T/C [30]: 72.8%
- viability, T/C [31]: 98.1%
- viability, T/C [32]: 101%
- viability, T/C [33]: 108%
- viability, T/C [34]: 102%
- viability, T/C [35]: 109%
- viability, T/C [36]: 77.6%

- IC50 (second compound 0.000949 µM): 0.843 µM
- IC50 (second compound 0.003 µM): 0.831 µM
- IC50 (second compound 0.00949 µM): 1.15 µM
- IC50 (second compound 0.03 µM): 0.864 µM
- IC50 (second compound 0.0949 µM): 1.19 µM
- IC50 (second compound 0.3 µM): 0.829 µM
SMILES: CC(C)NCC(C(=O)N1CCN(c2ncnc3c2C(C)CC3O)CC1)c1ccc(Cl)cc1 (stereo not drawn) + CCn1c(-c2cc(N3CCN(C)CC3)cnc2C(C)OC)c2c3cc(ccc31)-c1csc(n1)CC(NC(=O)C1CC1C)C(=O)N1CCCC(N1)C(=O)OCC(C)(C)C2
- viability, T/C [3]: 97%
- viability, T/C [4]: 86.3%
- viability, T/C [5]: 71.5%
- viability, T/C [6]: 47.3%
- viability, T/C [37]: 23.5%
- viability, T/C [38]: 14.2%
- viability, T/C [9]: 117%
- viability, T/C [10]: 101%
- viability, T/C [11]: 70.2%
- viability, T/C [12]: 45.8%
- viability, T/C [39]: 28.4%
- viability, T/C [40]: 15.1%
- viability, T/C [15]: 110%
- viability, T/C [16]: 97.6%
- viability, T/C [17]: 78.9%
- viability, T/C [18]: 53%
- viability, T/C [41]: 29.3%
- viability, T/C [42]: 14.8%
- viability, T/C [21]: 113%
- viability, T/C [22]: 90.1%
- viability, T/C [23]: 61.3%
- viability, T/C [24]: 45.9%
- viability, T/C [43]: 34.6%
- viability, T/C [44]: 11.4%
- viability, T/C [27]: 108%
- viability, T/C [28]: 118%
- viability, T/C [29]: 90.3%
- viability, T/C [30]: 54.5%
- viability, T/C [45]: 25.4%
- viability, T/C [46]: 10.8%
- viability, T/C [33]: 113%
- viability, T/C [34]: 104%
- viability, T/C [35]: 76.4%
- viability, T/C [36]: 38.6%
- viability, T/C [47]: 36%
- viability, T/C [48]: 11.6%

- IC50 (second compound 0.000949 µM): 0.127 µM
- IC50 (second compound 0.003 µM): 0.0938 µM
- IC50 (second compound 0.00949 µM): 0.158 µM
- IC50 (second compound 0.03 µM): 0.0916 µM
- IC50 (second compound 0.0949 µM): 0.145 µM
- IC50 (second compound 0.3 µM): 0.169 µM
SMILES: CC(Nc1ccc2c(c1)OCCn1cc(N3C(=O)OCC3C(F)F)nc1-2)C(N)=O (stereo not drawn) + CCn1c(-c2cc(N3CCN(C)CC3)cnc2C(C)OC)c2c3cc(ccc31)-c1csc(n1)CC(NC(=O)C1CC1C)C(=O)N1CCCC(N1)C(=O)OCC(C)(C)C2
- viability, T/C [3]: 75.9%
- viability, T/C [4]: 56.3%
- viability, T/C [5]: 25.9%
- viability, T/C [6]: 19.5%
- viability, T/C [37]: 25.7%
- viability, T/C [38]: 14.8%
- viability, T/C [9]: 78.6%
- viability, T/C [10]: 49.9%
- viability, T/C [11]: 25.1%
- viability, T/C [12]: 25.5%
- viability, T/C [39]: 15.4%
- viability, T/C [40]: 13.2%
- viability, T/C [15]: 85.8%
- viability, T/C [16]: 57.5%
- viability, T/C [17]: 39.6%
- viability, T/C [18]: 21.4%
- viability, T/C [41]: 20.3%
- viability, T/C [42]: 14%
- viability, T/C [21]: 76.4%
- viability, T/C [22]: 44.7%
- viability, T/C [23]: 36.8%
- viability, T/C [24]: 21.9%
- viability, T/C [43]: 16.7%
- viability, T/C [44]: 17.3%
- viability, T/C [27]: 77.8%
- viability, T/C [28]: 59.2%
- viability, T/C [29]: 30.7%
- viability, T/C [30]: 21.5%
- viability, T/C [45]: 25.5%
- viability, T/C [46]: 15.9%
- viability, T/C [33]: 89.2%
- viability, T/C [34]: 57.2%
- viability, T/C [35]: 42%
- viability, T/C [36]: 26.8%
- viability, T/C [47]: 26.6%
- viability, T/C [48]: 18.8%

- IC50 (second compound 0.000949 µM): < 0.00316 µM
- IC50 (second compound 0.003 µM): < 0.00316 µM
- IC50 (second compound 0.00949 µM): < 0.00316 µM
- IC50 (second compound 0.03 µM): < 0.00316 µM
- IC50 (second compound 0.0949 µM): < 0.00316 µM
- IC50 (second compound 0.3 µM): < 0.00316 µM
SMILES: O=C(c1ccc(F)c(F)c1Nc1ccc(I)cc1F)N1CC(O)([C@@H]2CCCCN2)C1 + CCn1c(-c2cc(N3CCN(C)CC3)cnc2C(C)OC)c2c3cc(ccc31)-c1csc(n1)CC(NC(=O)C1CC1C)C(=O)N1CCCC(N1)C(=O)OCC(C)(C)C2
- viability, T/C [1]: 25.6%
- viability, T/C [2]: 15.3%
- viability, T/C [3]: 12.3%
- viability, T/C [4]: 7.55%
- viability, T/C [5]: 6.32%
- viability, T/C [6]: 4.06%
- viability, T/C [7]: 26.8%
- viability, T/C [8]: 17.7%
- viability, T/C [9]: 11%
- viability, T/C [10]: 7.55%
- viability, T/C [11]: 5.82%
- viability, T/C [12]: 4.4%
- viability, T/C [13]: 20%
- viability, T/C [14]: 7.54%
- viability, T/C [15]: 7.52%
- viability, T/C [16]: 5.46%
- viability, T/C [17]: 5.26%
- viability, T/C [18]: 4.12%
- viability, T/C [19]: 14.1%
- viability, T/C [20]: 8.8%
- viability, T/C [21]: 6.96%
- viability, T/C [22]: 5.38%
- viability, T/C [23]: 5.09%
- viability, T/C [24]: 4.3%
- viability, T/C [25]: 9.09%
- viability, T/C [26]: 6.88%
- viability, T/C [27]: 5.8%
- viability, T/C [28]: 5.07%
- viability, T/C [29]: 5.29%
- viability, T/C [30]: 4.24%
- viability, T/C [31]: 11.8%
- viability, T/C [32]: 7.65%
- viability, T/C [33]: 5.68%
- viability, T/C [34]: 5.13%
- viability, T/C [35]: 4.83%
- viability, T/C [36]: 4.09%
